Data taken from PubChem BioAssay (NCI).
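Cultured in 96-well plates, cells were exposed to test compound for 48 hours across five concentrations. GI50 marks 50% less growth. Definition used: TGI = concentration required for complete inhibition of growth.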 Where a SMILES comes first, the peptide text is derived from it. The star is where a group is joined. Boc = CC(C)(C)OC(=O)*; OBn = c1ccc(CO*)cc1

The molecules below were run on K-562 leukemia (assay: NCI tumour cell line growth inhibition, 48 h).
Work on `COc1ccc2c(c1)/C(=C\c1c(C)nc3n1CCS3)C(=O)N2` yielded a TGI greater than 100 µM.
In the case of `COC(=O)C1=C(O)C(C(=O)OC)[C@]2(O)[C@H](C(=O)OC)[C@H]1C[C@@H](c1ccc(F)cc1)[C@H]2C(=O)OC` (stereo partly specified), the TGI is reported as greater than 100 µM.
Work on `CCN(CC)c1cc2c3c(c1)CCCN3CCC2` yielded a TGI greater than 10 µM.
For `CN(C)C=C1C(=O)c2c(Br)sc(Br)c2C1=O`, the TGI was 66.4 µM.
Work on `CC(=O)O[C@H]1CC[C@H]2[C@@H]3CCC4C(C)=NNC(=O)C4[C@H]3CC[C@]12C` (stereo partly specified) yielded a TGI greater than 100 µM.
`O=c1[nH]n(Cc2ccccc2Cl)c2ccc([N+](=O)[O-])cc12` showed a TGI greater than 100 µM.
`COc1cc2c[n+](C)c3c4cc5c(cc4ccc3c2cc1OC)OCO5` showed a TGI of 32.2 µM.
`O=c1[nH]c(C23CC4CC(CC(C4)C2)C3)cc2c1c(=O)oc1ccccc12` gave a TGI greater than 35.8 µM.
For `CC1=NN(C(=O)CC(=O)Nc2ccc(C)cc2)C(=O)C1N=Nc1ccc(C(=O)O)cc1` (stereo unspecified), the TGI was greater than 100 µM.
For `CCOC(=O)CCC(NC(=O)c1ccc(CNc2nc3ccccc3nc2C(=O)OCC)cc1)C(=O)OCC` (stereo unspecified), the TGI was greater than 100 µM.
`CCN(CC)C(=C(C(Cl)=C(Cl)Cl)[N+](=O)[O-])N(CC)CC` gave a TGI greater than 100 µM.
`O=C1C(=O)c2c(oc(=O)c3ccccc23)-c2ccccc21` showed a TGI greater than 25 µM.
Work on `CCOC(=O)C(C(=O)OCC)=C1NC2(c3ccccc3Nc3ccc(C)cc32)C(C#N)S1` (stereo unspecified) yielded a TGI of 25.8 µM.
In the case of `CN1CCC2(CC1)SC[C@H]1C(=O)N(c3ccc(Cl)cc3)C(=O)N12`, the TGI is reported as greater than 100 µM.
With `COC(=O)Nc1nc2ccc(S(=O)(=O)NC(CC(C)C)C(=O)OC)cc2[nH]1` (stereo unspecified) the TGI was greater than 100 µM.
`CC(C)=CCC[C@@H](C)C1=C(O)C(O)C(C)=C2N=C(c3ccccc3)C(=O)OC21` (stereo partly specified) showed a TGI greater than 25 µM.
`Cc1cc([C@H](C#N)c2nc3ccccc3[nH]2)nc(Cl)n1` gave a TGI greater than 100 µM.
`OC(CCN1CCCCC1)(c1ccccc1)c1ccccc1` was tested, and the TGI was greater than 100 µM.
`COC1CC(C)C(OC)C2=CC(=O)C=C(NC(=O)/C(C)=C/C=C\C(C)C(OC(N)=O)/C(C)=C\C(C)C1OC)C2=O` (stereo unspecified) showed a GI50 of 0.047 µM and a TGI of 1.19 µM.
`CC(C)(C)[Si](C)(C)O[C@@H](C(=O)OC1C=CCCC1)[C@@H](NC(=O)c1ccccc1)c1ccccc1` (stereo partly specified) showed a TGI of 37 µM.
Molecule `O=C(Nc1cccc2ccccc12)Nn1cnnc1` has a TGI greater than 100 µM.
Work on `Cc1oc2c(c1C)S(=O)(=O)C(C#N)=C(c1ccccc1)N2` yielded a TGI greater than 100 µM.
With `O=C1c2ccccc2C(O)(C(=O)O)C1(O)CC=C(Cl)Cl` (stereo unspecified) the TGI was greater than 125 µM.
`CCOC(=O)C1=CN/C(=C(/C)C(=O)OC)SC1C(=O)OCC` (stereo unspecified) gave a TGI greater than 31.6 µM.
In the case of `Cc1ccc2c(c1)C(=O)/C(=N/Nc1ccc(Cl)cc1)CCO2`, the TGI is reported as greater than 100 µM.
Work on `CN(C)C=Nc1cccc2nsnc12` yielded a TGI greater than 100 µM.
`COc1cc(C2SCC(=O)N2c2ccccc2Cl)cc(OC)c1OC` (stereo unspecified) showed a TGI greater than 100 µM.
For `CN(C)c1ccc(/C=N\NC(=O)c2ccccc2Nc2ccccc2C(=O)N/N=C/c2ccc(N(C)C)cc2)cc1`, the TGI was greater than 100 µM.
For `CC(=O)O[C@@H]1CC[C@@]2(C)C(CC[C@H]3[C@@H]4CC[C@H]([C@H](C)CCc5nc6ccc(C)cc6[nH]5)[C@@]4(C)CC[C@@H]32)C1` (stereo partly specified), the TGI was greater than 100 µM.
With `C=C1C(=O)OC2/C=C(\CO)C3OC3C3OC3(C)CC(OC(=O)/C(=C/C)CO)C12` (stereo unspecified) the TGI was 65.4 µM.
Work on `COc1cc(/C=C(\C#N)c2nc3ccccc3o2)ccc1O` yielded a TGI greater than 100 µM.
`COc1ccc2cc(CNCCCCCCCCCCCCNCc3ccc4cc(OC)ccc4c3)ccc2c1` was tested, and the TGI was greater than 50 µM.
`COc1cccc(OC/C(N=Cc2cccnc2)=N/NC(=O)c2ccncc2)c1` was tested, and the TGI was greater than 100 µM.
`COC(=O)c1c(O)ccc2c1c1c(n2Cc2ccccc2)C(=O)c2ccccc2C1=O` was tested, and the TGI was 36.3 µM.
Work on `Cc1csc2nc3c(cnn3C)c(=S)n12` yielded a TGI greater than 100 µM.
For `COc1cc(S(=O)(=O)Nc2nc(-c3ccc(N4C(=O)CSC4c4cccs4)cc3)cs2)ccc1Cl` (stereo unspecified), the TGI was greater than 100 µM.
In the case of `COc1cc(S(=O)(=O)Nc2nc(-c3ccc(N4C(=O)C(CC(=O)O)SC4c4ccccc4O)cc3)cs2)ccc1Cl` (stereo unspecified), the TGI is reported as greater than 100 µM.
In the case of `Cc1cc(C)nc(NS(=O)(=O)c2ccc(NNc3c4ccccc4nc4c(C(=O)Nc5ccc(S(=O)(=O)Nc6ncccn6)cc5)cccc34)cc2)n1`, the TGI is reported as 73.1 µM.
In the case of `COC(=O)C(C)NP(=O)(N1CC1)N1CC1` (stereo unspecified), the TGI is reported as greater than 100 µM.
For `N#C/C(=C\c1cn(Cc2ccccc2)c2ccccc12)c1nn(-c2ccccc2)c(N)c1C#N`, the TGI was greater than 100 µM.
In the case of `COCC(N=CN1CCCc2ccccc2[C@@H]1CCCCl)C(C)(C)C` (stereo partly specified), the TGI is reported as 14.2 µM.
Molecule `CNc1c2cccc(C)c2nc2c(C(=O)NCCN(C)C)cccc12` has a TGI greater than 100 µM.
Molecule `O=C1CC(NC(=O)C(F)(F)F)c2c1csc2Br` (stereo unspecified) has a TGI greater than 100 µM.
For `Ic1ncnc2c1ncn2C1CCCO1` (stereo unspecified), the TGI was greater than 100 µM.
`CC12CCC3[C@@H](CC3(C)C)C(O)(CCC1=O)C2` (stereo partly specified) showed a TGI greater than 100 µM.
`CO[C@H]1c2cccc3cccc(c23)[C@@H]1n1[nH]c(=O)n(C(C)(C)C)c1=O` gave a TGI greater than 100 µM.
For `COc1ccc(Nc2nnc(CCCCCCCCc3nnc(Nc4ccc(OC)cc4)o3)o2)cc1`, the TGI was greater than 100 µM.
With `CCC(Sc1cc(Cl)c(C)cc1S(=O)(=O)Nc1nc(N)nc(N(C)C)n1)C(=O)O` (stereo unspecified) the TGI was greater than 10 µM.
`O=C(N/N=C/c1ccc2c(c1)OCO2)Nc1ccccc1Cl` gave a TGI greater than 100 µM.
`C[C@]12C[C@H](c3ccccc3)Nc3ccccc3N1C(c1ccccc1)=NO2` showed a TGI greater than 100 µM.
Work on `O=c1c(C=Nc2ccccc2Cl)c(O)n(-c2ccccc2)c(=O)n1-c1ccccc1` yielded a TGI greater than 100 µM.
`CC1(C)C2CCC3=C(CCC4(C)C5C[C@](C)(C(=O)O)CC[C@]5(C)CC[C@]34C)[C@@]2(C)CC[C@@H]1O` (stereo partly specified) was tested, and the TGI was 49 µM.
For `CCOC(=O)NNC(=O)C1CSC(c2ccccc2)N1C(C)=O` (stereo unspecified), the TGI was greater than 100 µM.
Molecule `Cc1ccc2nc(CN3CCCC(O)C3)cc(=O)n2c1` (stereo unspecified) has a TGI greater than 100 µM.
Molecule `O=[n+]1c2ccccc2n([O-])c2ccccc21` has a TGI greater than 100 µM.
In the case of `CC[C@](O)(CC(=O)O[C@H]1C(=O)O[C@@H]2C[C@H]3C(C)=CC(=O)[C@@H](O)[C@]3(C)[C@H]3[C@@]4(O)OC[C@]32[C@@H]1[C@@H](C)[C@H]4O)C(C)C`, the TGI is reported as less than 0.01 µM.
In the case of `CCOC(=O)C(SCCO)C(C(=O)OCC)n1cnc2c(N)ncnc21` (stereo unspecified), the TGI is reported as 14.6 µM.
With `O=C1CC(CC(O)[C@@H]2CCCC[C@@H]2O)CC(=O)N1c1ccccc1` (stereo partly specified) the TGI was greater than 100 µM.
Molecule `COc1ccc2nc3c([N+](=O)[O-])ccc4c3c(c2c1)N=CN4CCCN(C)C` has a TGI of 2.19 µM.
In the case of `CCCCCCCCCCCCCCCCCCNc1ccn(C2OC(COP(=O)(O)OC3CC(n4cc(F)c(=O)[nH]c4=O)OC3COP(=O)(O)OCC3OC(n4ccc(N)nc4=O)C(O)C3O)C(O)C2O)c(=O)n1` (stereo unspecified), the TGI is reported as greater than 100 µM.
`OC1(CCc2ccccc2)COC(C(F)(F)F)(C(F)(F)F)C1` (stereo unspecified) was tested, and the TGI was greater than 100 µM.
`CCC(C)C(C(=O)N/N=C1/SCC(=O)N1c1ccccc1)C(=O)N/N=C1/SCC(=O)N1c1ccccc1` (stereo unspecified) showed a TGI greater than 100 µM.
For `Cc1c(C)c2c(c(N)c1C#N)C(=O)N(CCc1ccccc1)C2=O`, the TGI was greater than 100 µM.
Work on `CC(C)C(NC(=O)C(Cc1ccccc1)NC(=O)OC(C)(C)C)C(=O)NCC(=O)OCc1ccccc1` (stereo not drawn) (Boc-Phe-Val-Gly-OBn; configuration not given here) yielded a TGI of 23.9 µM.

The molecules below were run on KM20L2 colon (assay: NCI tumour cell line growth inhibition, 48 h).
In the case of `COc1cc2c[n+](C)c3c4cc5c(cc4ccc3c2cc1OC)OCO5`, the TGI is reported as 3.47 µM.
Work on `O=C1c2ccccc2C(O)(C(=O)O)C1(O)CC=C(Cl)Cl` (stereo unspecified) yielded a TGI greater than 125 µM.
Work on `COC(=O)C(C)NP(=O)(N1CC1)N1CC1` (stereo unspecified) yielded a TGI greater than 100 µM.
In the case of `Ic1ncnc2c1ncn2C1CCCO1` (stereo unspecified), the TGI is reported as greater than 100 µM.

The molecules below were run on LXFL 529 NSCLC (assay: NCI tumour cell line growth inhibition, 48 h).
`COc1cc2c[n+](C)c3c4cc5c(cc4ccc3c2cc1OC)OCO5` was tested, and the TGI was 4.67 µM.
`COC1CC(C)C(OC)C2=CC(=O)C=C(NC(=O)/C(C)=C/C=C\C(C)C(OC(N)=O)/C(C)=C\C(C)C1OC)C2=O` (stereo unspecified) was tested, and the TGI was 1.8 µM.
For `COC(=O)C(C)NP(=O)(N1CC1)N1CC1` (stereo unspecified), the TGI was greater than 100 µM.

The molecules below were run on M19-MEL melanoma (assay: NCI tumour cell line growth inhibition, 48 h).
With `COc1cc2c[n+](C)c3c4cc5c(cc4ccc3c2cc1OC)OCO5` the TGI was 2.9 µM.
Molecule `COC1CC(C)C(OC)C2=CC(=O)C=C(NC(=O)/C(C)=C/C=C\C(C)C(OC(N)=O)/C(C)=C\C(C)C1OC)C2=O` (stereo unspecified) has a TGI of 6.62 µM.
In the case of `O=C1c2ccccc2C(O)(C(=O)O)C1(O)CC=C(Cl)Cl` (stereo unspecified), the TGI is reported as greater than 125 µM.
In the case of `Ic1ncnc2c1ncn2C1CCCO1` (stereo unspecified), the TGI is reported as greater than 100 µM.

Each molecule was assayed on P388 leukemia (assay: NCI tumour cell line growth inhibition, 48 h).
In the case of `O=C1c2ccccc2C(O)(C(=O)O)C1(O)CC=C(Cl)Cl` (stereo unspecified), the TGI is reported as greater than 125 µM.

Each molecule was assayed on P388/ADR leukemia (assay: NCI tumour cell line growth inhibition, 48 h).
Work on `O=C1c2ccccc2C(O)(C(=O)O)C1(O)CC=C(Cl)Cl` (stereo unspecified) yielded a TGI greater than 70.3 µM.

These molecules were tested on RXF-631 renal (assay: NCI tumour cell line growth inhibition, 48 h).
`COc1cc2c[n+](C)c3c4cc5c(cc4ccc3c2cc1OC)OCO5` was tested, and the TGI was greater than 100 µM.
Work on `COC(=O)C(C)NP(=O)(N1CC1)N1CC1` (stereo unspecified) yielded a TGI greater than 100 µM.

The molecules below were run on SN12K1 renal (assay: NCI tumour cell line growth inhibition, 48 h).
`O=C1c2ccccc2C(O)(C(=O)O)C1(O)CC=C(Cl)Cl` (stereo unspecified) gave a TGI greater than 125 µM.

What follows are molecules tested on SNB-78 CNS (assay: NCI tumour cell line growth inhibition, 48 h).
In the case of `COc1cc2c[n+](C)c3c4cc5c(cc4ccc3c2cc1OC)OCO5`, the TGI is reported as greater than 25.9 µM.
Molecule `COC1CC(C)C(OC)C2=CC(=O)C=C(NC(=O)/C(C)=C/C=C\C(C)C(OC(N)=O)/C(C)=C\C(C)C1OC)C2=O` (stereo unspecified) has a TGI of 13.6 µM.
For `O=C1c2ccccc2C(O)(C(=O)O)C1(O)CC=C(Cl)Cl` (stereo unspecified), the TGI was greater than 125 µM.
With `COC(=O)C(C)NP(=O)(N1CC1)N1CC1` (stereo unspecified) the TGI was greater than 100 µM.
Molecule `Ic1ncnc2c1ncn2C1CCCO1` (stereo unspecified) has a TGI greater than 100 µM.

Each molecule was assayed on XF 498 CNS (assay: NCI tumour cell line growth inhibition, 48 h).
`COc1cc2c[n+](C)c3c4cc5c(cc4ccc3c2cc1OC)OCO5` gave a TGI of 9.95 µM.
`COC1CC(C)C(OC)C2=CC(=O)C=C(NC(=O)/C(C)=C/C=C\C(C)C(OC(N)=O)/C(C)=C\C(C)C1OC)C2=O` (stereo unspecified) gave a TGI of 3.13 µM.
With `O=C1c2ccccc2C(O)(C(=O)O)C1(O)CC=C(Cl)Cl` (stereo unspecified) the TGI was greater than 125 µM.
Work on `COC(=O)C(C)NP(=O)(N1CC1)N1CC1` (stereo unspecified) yielded a TGI greater than 100 µM.
`Ic1ncnc2c1ncn2C1CCCO1` (stereo unspecified) gave a TGI greater than 100 µM.
